Results reported in paper PMC12856912, “Structure-Guided Semisynthesis of Blasticidin S–Amicetin Chimeras as Selective Ribosome Inhibitors” (Journal of the American Chemical Society, 2026).
≈ marks a conversion by molar mass, not a printed value.

Tests used:
[1] = tested on: MRSA ATCC 43300; assay: Antibacterial MIC assay, serial dilution; type: cell-based, Staphylococcus aureus
Summary of the method: (§1)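 Broth microdilution in cation-adjusted Mueller-Hinton broth with an inoculum at OD600 0.004 and final compound levels of 128–1 μg/mL. Plates ran 16–18 h at 37 °C, or 24 h for VRE. OD600 was normalized to controls, and MIC = lowest concentration inhibiting >90% growth; two biological replicates were run in duplicate.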

[2] = tested on: S. aureus ATCC 6538P; assay: Antibacterial MIC assay, serial dilution; type: cell-based, Staphylococcus aureus
Summary of the method: as §1

[3] = tested on: S. aureus ΔNorA; assay: Antibacterial MIC assay, serial dilution; type: cell-based, Staphylococcus aureus
Summary of the method: as §1

[4] = tested on: Methicillin resistant Staphylococcus epidermidis (MRSE) ATCC 35984 NRS101; assay: Antibacterial MIC assay, serial dilution; type: cell-based
[5] = tested on: Methicillin resistant S. aureus (MRSA) USA300; assay: Antibacterial MIC assay, serial dilution; type: cell-based, Staphylococcus aureus
[6] = tested on: Vancomycin resistant E. faecalis NR-31972 (VRE); assay: Antibacterial MIC assay, serial dilution; type: cell-based, Enterococcus faecalis
Summary of the method: as §1

[7] = tested on: Acinetobacter baumannii ATCC 17978; assay: Antibacterial MIC assay, serial dilution; type: cell-based; settings: ATCC17978, range from biological replicates
Summary of the method: as §1

[8] = tested on: Enterococcus faecalis ATCC 29212; assay: Antibacterial MIC assay, serial dilution; type: cell-based
[9] = tested on: Klebsiella pneumoniae ATCC 29665; assay: Antibacterial MIC assay, serial dilution; type: cell-based
Summary of the method: as §1

[10] = tested on: Pseudomonas aeruginosa; assay: Antibacterial MIC assay, serial dilution; type: cell-based
Summary of the method: as §1

[11] = tested on: Vancomycin resistant Enterococcus faecium NR-31909 (VRE); assay: Antibacterial MIC assay, serial dilution; type: cell-based
Summary of the method: as §1

[12] = tested on: Escherichia coli BAA-2452; assay: Antibacterial MIC assay, serial dilution; type: cell-based; settings: BAA2452, read-out: MIC Escherichia coli BAA-2452
[13] = Cytotoxicity assay (MTS/PMS); type: cell-based; settings: monkey, Vero cells (monkey kidney epithelial cells); 24 h treatment, MTS/PMS, average of three biological replicates; read-out: CC50 against Vero cells
Summary of the method: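 Vero cells were allowed to adhere for 24 h in DMEM with 10% FBS at 37 °C, then exposed to serial compound dilutions for 24 h. Viability was measured by MTS/PMS (4 h, absorbance at 490 nm) and normalized to vehicle. CC50 is the concentration giving 50% viability, averaged over three biological replicates.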

[14] = tested on: bacteria; assay: Antibacterial assays, summary statements over the panel; type: cell-based; settings: against most S. aureus strains
Procedure: Media and solutions were autoclaved or sterile filtered prior to use and mani pulations were carri ed out in a laminar flow hood. Antibacterial t esting was performed in polypropylene 96-well flat bottom plates. The minimal inhibitory concentration of blasticidin S (1) hydrochloride, methyl ester (3) trihydrochloride, P10 (2) tri-T FA , phenet hyl amide (4) tri -T FA , an d blastimidines M 19– 22, A, 29–32, P 37–40, and C 43–46 (salt forms as described in the te xt) were assessed against Staphylococcus aureus ΔNorA, S. aureus ATCC 6538P, methicillin-resistant S. aureus (MRSA) ATCC 43300, Enterococcus faecalis ATCC 29212, vancomycin- resistant Enterococcus, Klebsiella pneumoniae ATCC 29665, Pseudomonas aeruginosa,and Acinetobacter baumannii ATCC 17978 using serial dilutions. Doxycycline (Gold Bio) as a positive control and the vehicle as a negative control. Stock solutions of each compound were prepared at 2.56 mg/mL in 50% DMSO/water and serially diluted in 50% DMSO/water to create master plates. […]
Growth controls (wells with inoculated media but no vehicle or test compounds) were included to assess any potential toxicity from the vehicle. […] Inh ibition was determined by measuring the optical density at 600 nm (OD60 0) with a Cytation 3 pl ate read er (BioTek). […]

CNc1ccc(C(=O)Nc2ccn([C@H]3C=C[C@H](NC(=O)C[C@@H](N)CCN(C)C(=N)N)[C@@H](C(=O)OC)O3)c(=O)n2)cc1 [Blastimidine M3]
Selectivity index (CC50/MIC) MRSA 43300 ([1]; CC50 Vero cells / MIC): 13
MIC ([1]; Staphylococcus aureus, read-out: MIC MRSA ATCC 43300): 16 µg/mL (≈ 28.1 µM)
Selectivity index (CC50/MIC) S. aureus 6538P ([2]; CC50 Vero cells / MIC): 26
MIC ([2]; Staphylococcus aureus, ATCC 6538P / ATCC 6539P, read-out: MIC S. aureus ATCC 6539P): 8 µg/mL (≈ 14 µM)
Selectivity index (CC50/MIC) S. aureus ΔNorA ([3]; CC50 Vero cells / MIC): 26
MIC ([3]; Staphylococcus aureus, read-out: MIC S. aureus ∆NorA): 8 µg/mL (≈ 14 µM)
Selectivity index (CC50/MIC) MRSE 35984 ([4]; CC50 Vero cells / MIC): 26
MIC ([4]; Staphylococcus epidermidis, read-out: MIC Methicillin resistant Staphylococcus epidermidis (MRSE) ATCC 35984 NRS101): 8 µg/mL (≈ 14 µM)
Selectivity index (CC50/MIC) MRSA USA300 ([5]; CC50 Vero cells / MIC): 26
MIC ([5]; Staphylococcus aureus, read-out: MIC Methicillin resistant S. aureus (MRSA) USA300): 8 µg/mL (≈ 14 µM)
Selectivity index (CC50/MIC) VRE NR-31972 ([6]; CC50 Vero cells / MIC): 13
MIC ([6]; Enterococcus faecalis, VRE, 24 h, read-out: MIC Vancomycin resistant E. faecalis NR-31972 (VRE)): 16 µg/mL (≈ 28.1 µM)
MIC [7]: > 128 µg/mL
Selectivity index (CC50/MIC) E. faecalis 29212 ([8]; CC50 Vero cells / MIC): 13
MIC ([8]; Enterococcus faecalis, ATCC 29112 / ATCC 29212, 24 h, read-out: MIC E. faecalis ATCC 29112): 16 µg/mL (≈ 28.1 µM)
Selectivity index (CC50/MIC) K. pneumoniae ([9]; CC50 Vero cells / MIC): 6.4
MIC ([9]; Klebsiella pneumoniae, ATCC29665, range from biological replicates, read-out: MIC K. pneumoniae ATCC-29665): 32 µg/mL (≈ 56.2 µM)
Selectivity index (CC50/MIC) P. aeruginosa ([10]; CC50 Vero cells / MIC): <1.6
MIC ([10]; Pseudomonas aeruginosa, range from biological replicates, read-out: MIC P. aeruginosa): > 128 µg/mL
Selectivity index (CC50/MIC) VRE NR-31909 ([11]; CC50 Vero cells / MIC): 3.2
MIC ([11]; Enterococcus faecium, VRE, 24 h, read-out: MIC Vancomycin resistant Enterococcus faecium NR-31909 (VRE)): 64 µg/mL (≈ 112 µM)
MIC [12]: 32 µg/mL (≈ 56.2 µM)
CC50 at 24 h [13]: 205 µg/mL (≈ 360 µM)
Selectivity index (SI) [14]: > 25
